# Assay results from paper PMC9950205, “Efficacy, safety, and pharmacokinetics of teduglutide in adult Japanese patients with short bowel syndrome and intestinal failure: two phase III studies with an extension” (Surgery Today, 2022).
# System: adult Japanese patients with SBS-IF
# Assay: Safety: treatment-emergent adverse events (TEAEs, TESAEs)
# Type: in vivo
# Description: Safety analyses included the monitoring of adverse events (AEs), body weight, BMI, vital signs, 12-lead electrocardiogram (ECG), serum biochemistry, hematology, and presence of antibodies to teduglutide. AEs were coded using the Medical Dictionary for Regulatory Activities versions 17.1 (TED-C14-004) and 21.0 (SHP633-306 and SHP633-307). Specifically, AEs were treatment-emergent AEs (TEAEs), defined as any unfavorable and unintended sign (including any abnormal laboratory finding), symptom, or disease that occurred during treatment with teduglutide, whether or not the event was considered to be related to the study drug by the clinical study investigator. AEs were also categorized as mild, moderate, or severe. […] AEs were considered related to treatment with teduglutide, or its administration, based on the investigator's medical judgment.
# [1] = ≤ 24 weeks (SHP633-306 and TED-C14-004), 0.05 mg/kg/day
structure (smiles),measurement,setting,value
CC[C@H](C)[C@H](NC(=O)[C@H](Cc1ccccc1)NC(=O)[C@H](CC(=O)O)NC(=O)[C@H](CCCNC(=N)N)NC(=O)[C@H](C)NC(=O)[C@H](C)NC(=O)[C@H](CC(C)C)NC(=O)[C@H](CC(N)=O)NC(=O)[C@H](CC(=O)O)NC(=O)[C@H](CC(C)C)NC(=O)[C@@H](NC(=O)[C@@H](NC(=O)[C@H](CC(N)=O)NC(=O)[C@H](CCSC)NC(=O)[C@H](CCC(=O)O)NC(=O)[C@H](CC(=O)O)NC(=O)[C@H](CO)NC(=O)[C@H](Cc1ccccc1)NC(=O)[C@H](CO)NC(=O)CNC(=O)[C@H](CC(=O)O)NC(=O)CNC(=O)[C@@H](N)Cc1c[nH]cn1)[C@@H](C)O)[C@@H](C)CC)C(=O)N[C@@H](CC(N)=O)C(=O)N[C@@H](Cc1c[nH]c2ccccc12)C(=O)N[C@@H](CC(C)C)C(=O)N[C@H](C(=O)N[C@@H](CCC(N)=O)C(=O)N[C@H](C(=O)N[C@@H](CCCCN)C(=O)N[C@H](C(=O)N[C@H](C(=O)N[C@@H](CC(=O)O)C(=O)O)[C@@H](C)O)[C@@H](C)CC)[C@@H](C)O)[C@@H](C)CC [teduglutide],Immune system disorders: Events,"Total, 0.05 mg/kg/day",2 n
same,Immune system disorders: Patients,"Total, 0.05 mg/kg/day",2 (11.1) n (%)
same,Infections and infestations: Events,"Total, 0.05 mg/kg/day",81 n
same,Infections and infestations: Patients,"Total, 0.05 mg/kg/day",12 (66.7) n (%)
same,Influenza: Events,"Total, 0.05 mg/kg/day",21 n
same,Injection site reaction: Events,"Total, 0.05 mg/kg/day",4 n
same,Injection site reaction: Patients,"Total, 0.05 mg/kg/day",4 (22.2) n (%)
same,"Injury, poisoning, and procedural complications: Events","Total, 0.05 mg/kg/day",6 n
same,"Injury, poisoning, and procedural complications: Patients","Total, 0.05 mg/kg/day",5 (27.8) n (%)
same,Insomnia: Events,"Total, 0.05 mg/kg/day",2 n
same,Insomnia: Patients,"Total, 0.05 mg/kg/day",2 (11.1) n (%)
same,Investigations: Events,"Total, 0.05 mg/kg/day",14 n
same,Investigations: Patients,"Total, 0.05 mg/kg/day",7 (38.9) n (%)
same,Metabolism and nutrition disorders: Events,"Total, 0.05 mg/kg/day",13 n
same,Metabolism and nutrition disorders: Patients,"Total, 0.05 mg/kg/day",7 (38.9) n (%)
same,Musculoskeletal and connective tissue disorders: Events,"Total, 0.05 mg/kg/day",12 n
same,Musculoskeletal and connective tissue disorders: Patients,"Total, 0.05 mg/kg/day",8 (44.4) n (%)
same,Nasopharyngitis: Events,"Total, 0.05 mg/kg/day",21 n
same,Nasopharyngitis: Patients,"Total, 0.05 mg/kg/day",7 (38.9) n (%)
same,Nausea: Events,"Total, 0.05 mg/kg/day",8 n
same,Nausea: Patients,"Total, 0.05 mg/kg/day",4 (22.2) n (%)
same,Nervous system disorders: Events,"Total, 0.05 mg/kg/day",26 n
same,Nervous system disorders: Patients,"Total, 0.05 mg/kg/day",8 (44.4) n (%)
same,Oral herpes: Events,"Total, 0.05 mg/kg/day",2 n
same,Oral herpes: Patients,"Total, 0.05 mg/kg/day",2 (11.1) n (%)
same,Oropharyngeal pain: Events,"Total, 0.05 mg/kg/day",4 n
same,Oropharyngeal pain: Patients,"Total, 0.05 mg/kg/day",4 (22.2) n (%)
same,Pruritus: Events,"Total, 0.05 mg/kg/day",2 n
same,Pruritus: Patients,"Total, 0.05 mg/kg/day",2 (11.1) n (%)
same,Psychiatric disorders: Events,"Total, 0.05 mg/kg/day",4 n
same,Psychiatric disorders: Patients,"Total, 0.05 mg/kg/day",3 (16.7) n (%)
same,Pyrexia: Events,"Total, 0.05 mg/kg/day",11 n
same,Pyrexia: Patients,"Total, 0.05 mg/kg/day",8 (44.4) n (%)
same,Renal and urinary disorders: Events,"Total, 0.05 mg/kg/day",6 n
same,Renal and urinary disorders: Patients,"Total, 0.05 mg/kg/day",5 (27.8) n (%)
same,"Respiratory, thoracic, and mediastinal disorders: Events","Total, 0.05 mg/kg/day",13 n
same,"Respiratory, thoracic, and mediastinal disorders: Patients","Total, 0.05 mg/kg/day",7 (38.9) n (%)
same,Skin and subcutaneous tissue disorders: Events,"Total, 0.05 mg/kg/day",18 n
same,Skin and subcutaneous tissue disorders: Patients,"Total, 0.05 mg/kg/day",9 (50.0) n (%)
same,Somnolence: Events,"Total, 0.05 mg/kg/day",3 n
same,Somnolence: Patients,"Total, 0.05 mg/kg/day",3 (16.7) n (%)
same,Stomatitis: Events,"Total, 0.05 mg/kg/day",4 n
same,Stomatitis: Patients,"Total, 0.05 mg/kg/day",4 (22.2) n (%)
same,Upper respiratory tract inflammation: Events,"Total, 0.05 mg/kg/day",3 n
same,Upper respiratory tract inflammation: Patients,"Total, 0.05 mg/kg/day",2 (11.1) n (%)
same,Vascular disorders: Events,"Total, 0.05 mg/kg/day",6 n
same,Vascular disorders: Patients,"Total, 0.05 mg/kg/day",4 (22.2) n (%)
same,Vascular pain: Events,"Total, 0.05 mg/kg/day",3 n
same,Vascular pain: Patients,"Total, 0.05 mg/kg/day",2 (11.1) n (%)
same,Vomiting: Events,"Total, 0.05 mg/kg/day",3 n
same,Vomiting: Patients,"Total, 0.05 mg/kg/day",3 (16.7) n (%)
same,Severity of the majority of all TEAEs,all studies,mild or moderate
same,"Changes in clinical laboratory measures, vital signs, body weight, BMI, or ECG findings",during any of the studies,no clinically meaningful changes
same,AEs related to growth of pre-existing polyps of the colon or gastrointestinal cancers,during the studies,no AEs
same,Abdominal distension: Events,[1],4 n
same,Abdominal distension: Patients,[1],4 (22.2) n (%)
same,Abdominal pain: Events,[1],5 n
same,Abdominal pain: Patients,[1],5 (27.8) n (%)
same,Anal abscess: Events,[1],0 n
same,Anal abscess: Patients,[1],0 n (%)
same,Anemia: Events,[1],2 n
same,Anemia: Patients,[1],2 (11.1) n (%)
same,Any TEAE: Events,[1],121 n
same,Any TEAE: Patients,[1],17 (94.4) n (%)
same,Arthralgia: Events,[1],0 n
same,Arthralgia: Patients,[1],0 n (%)
same,Back pain: Events,[1],1 n
same,Back pain: Patients,[1],1 (5.6) n (%)
same,Blood and lymphatic system disorders: Events,[1],4 n
same,Blood and lymphatic system disorders: Patients,[1],3 (16.7) n (%)
same,Catheter site infection: Events,[1],1 n
same,Catheter site infection: Patients,[1],1 (5.6) n (%)
same,Catheter site pain: Events,[1],1 n
same,Catheter site pain: Patients,[1],1 (5.6) n (%)
same,Dehydration: Events,[1],2 n
same,Dehydration: Patients,[1],2 (11.1) n (%)
same,Dermatitis contact: Events,[1],0 n
same,Dermatitis contact: Patients,[1],0 n (%)
same,Device occlusion (central venous catheter for PS): Events,[1],3 n
same,Device occlusion (central venous catheter for PS): Patients,[1],2 (11.1) n (%)
same,Device-related infection (central venous catheter for PS): Events,[1],9 n
same,Device-related infection (central venous catheter for PS): Patients,[1],6 (33.3) n (%)
same,Diarrhea: Events,[1],1 n
same,Diarrhea: Patients,[1],1 (5.6) n (%)
same,Dry skin: Events,[1],1 n
same,Dry skin: Patients,[1],1 (5.6) n (%)
same,Enteritis: Events,[1],1 n
same,Enteritis: Patients,[1],1 (5.6) n (%)
same,Enterocolitis: Events,[1],2 n
same,Enterocolitis: Patients,[1],1 (5.6) n (%)
same,Eye disorder: Events,[1],2 n
same,Eye disorder: Patients,[1],2 (11.1) n (%)
same,Gastrointestinal disorders: Events,[1],27 n
same,Gastrointestinal disorders: Patients,[1],12 (66.7) n (%)
same,General disorders and administration site conditions: Events,[1],21 n
same,General disorders and administration site conditions: Patients,[1],9 (50.0) n (%)
same,Headache: Events,[1],3 n
same,Headache: Patients,[1],3 (16.7) n (%)
same,Hematuria: Events,[1],1 n
same,Hematuria: Patients,[1],1 (5.6) n (%)
same,Hemorrhage subcutaneous: Events,[1],1 n
same,Hemorrhage subcutaneous: Patients,[1],1 (5.6) n (%)
same,Hepatobiliary disorders: Events,[1],3 n
same,Hepatobiliary disorders: Patients,[1],2 (11.1) n (%)
same,Hypersensitivity: Events,[1],0 n
same,Hypersensitivity: Patients,[1],0 n (%)
same,Hypozincemia: Events,[1],1 n
same,Hypozincemia: Patients,[1],1 (5.6) n (%)
same,Immune system disorders: Events,[1],0 n
same,Immune system disorders: Patients,[1],0 n (%)
same,Infections and infestations: Events,[1],19 n
same,Infections and infestations: Patients,[1],8 (44.4) n (%)
same,Influenza: Events,[1],0 n
same,Influenza: Patients,[1],0 n (%)
same,Injection site reaction: Events,[1],4 n
same,Injection site reaction: Patients,[1],4 (22.2) n (%)
same,"Injury, poisoning, and procedural complications: Events",[1],5 n
same,"Injury, poisoning, and procedural complications: Patients",[1],4 (22.2) n (%)
same,Insomnia: Events,[1],0 n
same,Insomnia: Patients,[1],0 n (%)
same,Investigations: Events,[1],9 n
same,Investigations: Patients,[1],6 (33.3) n (%)
same,Metabolism and nutrition disorders: Events,[1],6 n
same,Metabolism and nutrition disorders: Patients,[1],4 (22.2) n (%)
same,Musculoskeletal and connective tissue disorders: Events,[1],2 n
same,Musculoskeletal and connective tissue disorders: Patients,[1],2 (11.1) n (%)
same,Nasopharyngitis: Events,[1],3 n
same,Nasopharyngitis: Patients,[1],3 (16.7) n (%)
same,Nausea: Events,[1],1 n
same,Nausea: Patients,[1],1 (5.6) n (%)
same,Nervous system disorders: Events,[1],7 n
same,Nervous system disorders: Patients,[1],4 (22.2) n (%)
same,Oral herpes: Events,[1],1 n
same,Oral herpes: Patients,[1],1 (5.6) n (%)
same,Oropharyngeal pain: Events,[1],1 n
same,Oropharyngeal pain: Patients,[1],1 (5.6) n (%)
same,Pruritus: Events,[1],1 n
same,Pruritus: Patients,[1],1 (5.6) n (%)
same,Psychiatric disorders: Events,[1],0 n
same,Psychiatric disorders: Patients,[1],0 n (%)
same,Pyrexia: Events,[1],6 n
same,Pyrexia: Patients,[1],6 (33.3) n (%)
same,Renal and urinary disorders: Events,[1],2 n
same,Renal and urinary disorders: Patients,[1],2 (11.1) n (%)
same,"Respiratory, thoracic, and mediastinal disorders: Events",[1],5 n
same,"Respiratory, thoracic, and mediastinal disorders: Patients",[1],5 (27.8) n (%)
same,Skin and subcutaneous tissue disorders: Events,[1],5 n
same,Skin and subcutaneous tissue disorders: Patients,[1],4 (22.2) n (%)
same,Somnolence: Events,[1],0 n
same,Somnolence: Patients,[1],0 n (%)
same,Stomatitis: Events,[1],1 n
same,Stomatitis: Patients,[1],1 (5.6) n (%)
same,Upper respiratory tract inflammation: Events,[1],2 n
same,Upper respiratory tract inflammation: Patients,[1],2 (11.1) n (%)
same,Vascular disorders: Events,[1],2 n
same,Vascular disorders: Patients,[1],2 (11.1) n (%)
same,Vascular pain: Events,[1],0 n
same,Vascular pain: Patients,[1],0 n (%)
same,Vomiting: Events,[1],2 n
same,Vomiting: Patients,[1],2 (11.1) n (%)
